Reference: US20250084079A1, “COMPOSITIONS AND METHODS FOR INHIBITION OF RAS” (TheRas, Inc., priority 2022, published 2025)
Where two headings read alike, the source gives them in different places.

Columns and labels:
[1] = biological target: T1, Avi-KRAS G12D/Q25A (1-169) GppNHp/3xFLAG-PI3KCA (157-299) (Homo sapiens, UniProt P01116, G12D/Q25A); test: RAS-effector PPI HTRF disruption assay, PI3KCA-GppNHp-KRAS G12D/Q25A; format: biochemical
T1 construct: 375 nM Avi-KRAS G12D/Q25A (1-169) GppNHp
Outline: (§1)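 Disruption of Avi-KRAS(1-169)·GppNHp binding to FLAG-tagged effector fragments is measured by HTRF. The PI3KCA complex (G12D/Q25A) runs at 375 nM, the G12D/RAF1 complex at 100 nM, and the G12V and WT RAF1 complexes at 50 nM. Values are IC50s relative to DMSO.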

[2] = tested on: pERK in GP2d cells (KRAS G12D); test: Cell-based pERK HTRF assay in GP2d cell; settings: 60 min incubation
Outline: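 GP2d cells (KRAS G12D) in DMEM/10% FBS were seeded the day before and exposed to compounds for 60 min in 0.25% DMSO. The 9-point curve started at 1 μM with half-log steps. Lysates were read for pERK by HTRF (Eu cryptate/d2 antibodies) after 4–24 h at room temperature, with excitation at 320 nm and emission at 615 nm.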

[3] = biological target: T2, Avi-KRAS G12D (1-169) GppNHp/RAF1 RBD-3xFLAG (52-151) (Homo sapiens, UniProt P01116, G12D); test: RAS-effector PPI HTRF disruption assay, Raf1-GppNHp-KRAS G12D; format: biochemical
T2 construct: 100 nM Avi-KRAS G12D (1-169) GppNHp
Outline: as §1

[4] = biological target: T3, Avi-KRAS WT (1-169) GppNHp/RAF1 RBD-3xFLAG (52-151) (Homo sapiens, UniProt P01116); test: RAS-effector PPI HTRF disruption assay, Raf1-GppNHp-KRAS WT; format: biochemical
T3 construct: 50 nM Avi-KRAS WT (1-169) GppNHp
Outline: as §1

[5] = biological target: T4, Avi-KRAS G12V (1-169) GppNHp/RAF1 RBD-3xFLAG (52-151) (Homo sapiens, UniProt P01116, G12V); test: RAS-effector PPI HTRF disruption assay, Raf1-GppNHp-KRAS G12V; format: biochemical
T4 construct: 50 nM Avi-KRAS G12V (1-169) GppNHp
Outline: as §1

T3 sequence (P01116 1-169 isoform P01116-2): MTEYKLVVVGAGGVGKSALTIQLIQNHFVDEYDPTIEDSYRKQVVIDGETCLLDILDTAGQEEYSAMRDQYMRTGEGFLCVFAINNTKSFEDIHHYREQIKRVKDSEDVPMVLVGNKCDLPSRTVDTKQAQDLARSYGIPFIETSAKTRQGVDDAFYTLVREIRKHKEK
T2 sequence (P01116 1-169 isoform P01116-2 G12D): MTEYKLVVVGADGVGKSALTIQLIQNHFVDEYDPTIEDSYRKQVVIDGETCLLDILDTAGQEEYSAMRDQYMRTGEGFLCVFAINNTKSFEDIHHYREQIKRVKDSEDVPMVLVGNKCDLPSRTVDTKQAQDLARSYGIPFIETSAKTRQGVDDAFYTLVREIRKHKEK
T1 sequence (P01116 1-169 isoform P01116-2 G12D/Q25A): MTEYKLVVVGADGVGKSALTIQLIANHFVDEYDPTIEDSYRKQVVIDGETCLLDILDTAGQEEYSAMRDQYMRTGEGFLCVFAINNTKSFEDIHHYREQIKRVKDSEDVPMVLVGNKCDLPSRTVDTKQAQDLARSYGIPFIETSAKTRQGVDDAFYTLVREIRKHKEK
T4 sequence (P01116 1-169 isoform P01116-2 G12V): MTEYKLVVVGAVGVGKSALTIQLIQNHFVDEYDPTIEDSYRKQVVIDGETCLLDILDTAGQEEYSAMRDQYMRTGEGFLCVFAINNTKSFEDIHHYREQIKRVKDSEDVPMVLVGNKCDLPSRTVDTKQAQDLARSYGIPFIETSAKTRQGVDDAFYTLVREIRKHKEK

SMILES	IC50 [1]	IC50 ([2]; GP2d, 1 h)	IC50 [3]	IC50 [4]	IC50 [5]	IC50 ([2]; read-out: pERK-Gp2D-1 hr)
N#Cc1c(N)sc2c(F)ccc(-c3cc4nc(OC[C@@]56CCCN5C[C@H](F)C6)nc(O[C@H]5CNC[C@@H]5F)c4cc3C(F)(F)F)c12 [Compound 46]	> 10000 nM	> 1000 nM	100 to 1000 nM	> 10000 nM	> 10 µM	–
CC1(C)NCCC1Oc1nc(OC[C@@]23CCCN2C[C@H](F)C3)nc2c(F)c(-c3ccc(F)c4sc(N)c(C#N)c34)c(C(F)(F)F)cc12 (stereo partly shown) [Compound 34]	100 to 1000 nM	≤ 100 nM	100 to 1000 nM	100 to 1000 nM	0.1 to 1 µM	–
C[C@H]1NCC[C@H]1Oc1nc(OC[C@@]23CCCN2C[C@H](F)C3)nc2cc(-c3ccc(F)c4sc(N)nc34)c(C(F)(F)F)cc12 [Compound 35]	> 10000 nM	100 to 1000 nM	100 to 1000 nM	1000 to 10000 nM	1 to 10 µM	–
C[C@H]1NCC[C@H]1Oc1nc(OCC23CCCN2C[C@H](F)C3)nc2c(F)c(-c3ccc(F)c4sc(N)nc34)c(C(F)(F)F)cc12 (stereo partly shown) [Compound 25]	100 to 1000 nM	≤ 100 nM	100 to 1000 nM	100 to 1000 nM	1 to 10 µM	–
Nc1nc2c(-c3c(C(F)(F)F)cc4c(O[C@H]5CNCC5(F)F)nc(OC[C@@]56CCCN5C[C@H](F)C6)nc4c3F)ccc(F)c2s1 [Compound 28]	> 10000 nM	–	1000 to 10000 nM	1000 to 10000 nM	> 10 µM	100 to 1000 nM
Nc1nc2c(-c3c(C(F)(F)F)cc4c(O[C@@H]5CCNC5)nc(OC[C@@]56CCCN5C[C@H](F)C6)nc4c3Cl)ccc(F)c2s1 (atropisomer, axis not shown) [Compound 11]	> 10000 nM	–	> 10000 nM	> 10000 nM	> 10 µM	> 1000 nM
Nc1nc2c(-c3c(C(F)(F)F)cc4c(O[C@H]5CNC[C@@H]5F)nc(OC[C@@]56CCCN5C[C@H](F)C6)nc4c3Cl)ccc(F)c2s1 [Compound 33]	1000 to 10000 nM	100 to 1000 nM	1000 to 10000 nM	1000 to 10000 nM	> 10 µM	–
C[C@H]1C[C@H](Oc2nc(OC[C@@]34CCCN3C[C@H](F)C4)nc3c(F)c(-c4ccc(F)c5sc(N)c(C#N)c45)c(Cl)cc23)CN1 [Compound 55]	1000 to 10000 nM	–	1000 to 10000 nM	1000 to 10000 nM	> 10 µM	> 1000 nM
C[C@H]1NCC[C@H]1Oc1nc(OC[C@@]23CCCN2C[C@H](F)C3)nc2c(F)c(-c3ccc(F)c4sc(N)c(C#N)c34)c(C(F)(F)F)cc12 [Compound 47, 2-amino-7-fluoro-4-(8-fluoro-2-(((2R,7aS)-2-fluorotetrahydro-1H-pyrrolizin-7a(5H)-yl)methoxy)-4-(((2R,3R)-2-methylpyrrolidin-3-yl)oxy)-6-(trifluoromethyl)quinazolin-7-yl)benzo[b]thiophene-3-carbonitrile]	> 10000 nM	≤ 100 nM	≤ 100 nM	≤ 100 nM	0.1 to 1 µM	–
CC1(C)NCC[C@H]1Oc1nc(OC[C@@]23CCCN2C[C@H](F)C3)nc2c(F)c(-c3ccc(F)c4sc(N)nc34)c(C(F)(F)F)cc12 [Compound 27]	> 10000 nM	100 to 1000 nM	100 to 1000 nM	1000 to 10000 nM	1 to 10 µM	–
C[C@@H]1NCC[C@H]1Oc1nc(OC[C@@]23CCCN2C[C@H](F)C3)nc2c(F)c(-c3ccc(F)c4sc(N)nc34)c(C(F)(F)F)cc12 (atropisomer, axis not shown) [Compound 8]	100 to 1000 nM	100 to 1000 nM	100 to 1000 nM	1000 to 10000 nM	1 to 10 µM	–
C[C@H]1CNCC1Oc1nc(OC[C@@]23CCCN2C[C@H](F)C3)nc2c(F)c(-c3ccc(F)c4scnc34)c(C(F)(F)F)cc12 (stereo partly shown) [Compound 12]	> 10000 nM	> 1000 nM	> 10000 nM	> 10000 nM	> 10 µM	–
C[C@@H]1C[C@@H](Oc2nc(OC[C@@]34CCCN3C[C@H](F)C4)nc3c(F)c(-c4ccc(F)c5sc(N)c(C#N)c45)ccc23)CN1 [Compound 56]	100 to 1000 nM	100 to 1000 nM	1000 to 10000 nM	1000 to 10000 nM	> 10 µM	–
N#Cc1c(N)sc2c(F)ccc(-c3ncc4c(O[C@H]5CNC[C@H]5F)nc(OC[C@@]56CCCN5C[C@H](F)C6)nc4c3F)c12 [Compound 51]	1000 to 10000 nM	> 1000 nM	1000 to 10000 nM	> 10000 nM	> 10 µM	–
Nc1nc2c(-c3c(C(F)(F)F)cc4c(O[C@H]5CN[C@@H](CO)C5)nc(OCC56CCCN5C[C@H](F)C6)nc4c3F)ccc(F)c2s1 (stereo partly shown) [Compound 58]	100 to 1000 nM	100 to 1000 nM	1000 to 10000 nM	1000 to 10000 nM	> 10 µM	–

Other lines, results leading:

IC50 [1]	IC50 ([2]; GP2d, 1 h)	IC50 [3]	IC50 [4]	IC50 [5]	IC50 ([2]; read-out: pERK-Gp2D-1 hr)	SMILES
> 10000 nM	100 to 1000 nM	100 to 1000 nM	100 to 1000 nM	1 to 10 µM	–	N#Cc1c(N)sc2c(F)ccc(-c3c(C(F)(F)F)cc4c(O[C@@H]5CCNC5)nc(N5CC(N6CC7(CC7)C6)C5)nc4c3F)c12 [Compound 67]
100 to 1000 nM	≤ 100 nM	≤ 100 nM	≤ 100 nM	0.1 to 1 µM	–	C[C@H]1NCC[C@@H]1Oc1nc(OC[C@@]23CCCN2C[C@H](Cl)C3)nc2c(F)c(-c3ccc(F)c4sc(N)c(C#N)c34)c(C(F)(F)F)cc12 [Compound 72]
100 to 1000 nM	100 to 1000 nM	≤ 100 nM	100 to 1000 nM	0.1 to 1 µM	–	N#Cc1c(N)sc2c(F)ccc(-c3c(Cl)cc4c(O[C@@H]5CN[C@H](CO)C5)nc(OC[C@@]56CCCN5C[C@H](F)C6)nc4c3F)c12 [Compound 70]
> 10000 nM	–	> 10000 nM	> 10000 nM	> 10 µM	> 1000 nM	N#Cc1c(N)sc2c(F)ccc(-c3c(Cl)cc4c(O[C@@H]5CN[C@@H](CO)C5)nc(OC[C@@]56CCCN5C[C@H](F)C6)nc4c3F)c12 (atropisomer, axis not shown) [Compound 68]
> 10000 nM	–	> 10000 nM	> 10000 nM	> 10 µM	> 1000 nM	C[C@@H]1C[C@H](Oc2nc(OC[C@@]34CCCN3C[C@H](F)C4)nc3c(F)c(-c4ccc(F)c5sc(N)c(C#N)c45)c(Cl)cc23)CN1 (atropisomer, axis not shown) [Compound 61]
> 10000 nM	> 1000 nM	> 10000 nM	> 10000 nM	> 10 µM	–	N#Cc1c(N)sc2c(F)ccc(-c3c(Cl)cc4c(O[C@@H]5CNC[C@H]5F)nc(OC[C@@]56CCCN5C[C@H](F)C6)nc4c3F)c12 (atropisomer, axis not shown) [Compound 64]
≤ 100 nM	–	≤ 100 nM	≤ 100 nM	≤ 0.1 µM	≤ 100 nM	N#Cc1c(N)sc2c(F)ccc(-c3c(Cl)cc4c(O[C@H]5CCN[C@@H]5CO)nc(OC[C@@]56CCCN5C[C@H](F)C6)nc4c3F)c12 (atropisomer, axis not shown) [Compound 76]
100 to 1000 nM	–	≤ 100 nM	100 to 1000 nM	0.1 to 1 µM	100 to 1000 nM	N#Cc1c(N)sc2c(F)ccc(-c3c(Cl)cc4c(O[C@@H]5CN[C@@H](CO)C5)nc(OC[C@@]56CCCN5C[C@H](F)C6)nc4c3F)c12 (atropisomer, axis not shown) [Compound 69]
